Test results as given in patent US20250213596A1, “CANNABINOID-CONTAINING COMPOSITIONS” (BUZZELET DEVELOPMENT AND TECHNOLOGIES LTD., priority 2022, published 2025).

Assay: Flowability / transfer of the product from vessel to vessel
Format: physicochemical
Settings: as obtained, ambient temperature
From the text: As used herein, the term “flowable” with regard to a composition is intended to mean that a majority of particles of the composition have the ability to move freely relative to an inner surface of a vessel in which they are contained.
Purified THC at 99% purity (dronabinol) was used.
A product comprising 66% silica and 33% THC was formed. It felt dry and was free flowing. It transferred fully from one vessel to another.

CCCCCc1cc(O)c2c(c1)OC(C)(C)[C@@H]1CCC(C)=C[C@@H]21 [dronabinol]
flowability of the material (pourable / free flowing): could not be poured out of its container
